Data reported in a melting point compilation (Tetko et al.; mined from patent text by program, amines drawn as free bases though some values may be those of a salt).

Row | Compound | melting point [°C]
1 | CCn1nc(Cc2ccc(NC(=O)/C=C/c3cnn(C)c3-c3ccc(F)cc3)cc2)oc1=O | 149 to 150
2 | CCN1c2ncc(CCc3ccncc3)cc2C(=O)N(C)c2ccc(Cl)nc21 | 158 to 159
3 | Brc1ccc(-c2cc3cc(-c4ccccc4)ccc3o2)cc1 | 90 to 92
4 | CN1CCC(=O)C(C2c3ccccc3C=Cc3ccccc32)C1 (centres undefined) | 144 to 158
5 | COc1cc(OC)c(-c2cccs2)cc1/C=C/C(=O)c1ccc(S(=O)(=O)Nc2cc(C)on2)cc1 | 202 to 203
6 | CC(C)=CC(=O)N1CC(c2ccccc2)c2ccccc21 (centres undefined) | 97 to 98
7 | Nc1ncc(-c2cc(Cl)c([N+](=O)[O-])c(Cl)c2Cl)c(N)n1 | 293 to 295
8 | CCOC(=O)c1cn(C2CC2)c2cc(C3=CCN(C(C)=O)CC3)c(F)cc2c1=O | 190 to 192
9 | Nc1nc2cc(Cl)c(Cl)cc2n1Cc1ccccc1 | 245 to 246
10 | Clc1cccc(OC2CCNc3ncc(-c4ccc(N5CCOCC5)cc4)cc32)c1 (centres undefined) | 124 to 126
11 | Oc1ccc2c(c1)C(Cc1ccnc(F)c1)(Cc1ccnc(F)c1)c1ccccc1-2 | 200 to 201
12 | COc1ncccc1-c1cccc(OC2SCC(OC(C)=O)C(OC(C)=O)C2OC(C)=O)c1 (centres undefined) | 179
13 | Cc1c(O)ccc(C=O)c1O | 150
14 | OCCN1CCN(c2ccc3nc(-c4ccc(Cl)s4)c(-c4ccncc4)n3n2)CC1 | 216 to 218
15 | NC(=O)NCCSc1ccc2nccn2n1 | 216 to 217
16 | COc1cccc(CCNC(=S)Nc2nc3ccccc3[nH]2)c1 | 161 to 167
17 | CCCCC[C@H]1CC[C@H](/C=C/COc2ccc(C(=O)O)cc2)CC1 | 214 to 215
18 | CC(C)(C)OC(=O)c1ccccc1NC(=O)CN1C(=O)c2ccccc2C1=O | 159
19 | CCOc1cccc(Oc2cccnc2C#N)c1 | 83 to 84
20 | Cn1c2c(c3ccccc3c1=O)C(=O)c1cc3c(cc1-2)OCO3 | 310 to 312
21 | O=C1C2=C(CCCC2)C(=O)N1c1c(F)cc(Cl)c2c1CC(CO)O2 (centres undefined) | 193 to 195
22 | C=Cc1noc(C2=CCCN(C(=O)OC(C)(C)C)C2)n1 | 81 to 82
23 | NS(=O)(=O)c1cc2ccc(O)cc2[nH]1 | 194 to 195
24 | CN(C)Cc1cccc(Cc2cnc(N[N+](=O)[O-])[nH]c2=O)c1 | 232 to 235
25 | CC(=NOC(C)C)c1ccc2c(c1)ncn2-c1cccc(-c2cccnc2)c1 | 77 to 80
26 | Cc1ccc(-c2nn3cccnc3c2CC(=O)N(C)C)cc1 | 164 to 165

Row | Compound | melting point [°C]
27 | O=C(O)c1ccc2nc3n(c(=O)c2c1)CCC3=Cc1ccccc1 | 285 to 287
28 | CC1Cc2ccccc2N1c1nc(=O)c2cccnc2s1 (centres undefined) | 179 to 180
29 | CC(NC(=O)N1CCc2cc(S(=O)(=O)N3CCN(c4cccc(Cl)c4)CC3)ccc21)C(=O)O (centres undefined) | 175 to 176
30 | Cc1nnc(-c2ccc3occ(-c4cc(F)ccc4F)c3n2)o1 | 185 to 186
31 | CCOC(=O)C(=O)Nc1ccc2cccc([N+](=O)[O-])c2c1[N+](=O)[O-] | 233
32 | CSc1ccc2c(c1)N=CC(SC)C2=O (centres undefined) | 90 to 92
33 | CCCCCCC#CCC#CCC#CCCCCCCC(=O)O | 57 to 58
34 | Cc1nnc(-c2nsc3ccc([N+](=O)[O-])cc23)o1 | > 250
35 | O=C1O[C@H](CO)CN1c1ccc(C2CCCCC2)cc1 | 166 to 168
36 | CC(C)(C)OC(=O)N1CC(CCl)c2c1cc(NC(=O)OCC1c3ccccc3-c3ccccc31)c1ccccc21 (centres undefined) | 103 to 106
37 | COc1nc(N)cc2cccnc12 | 178 to 180
38 | COc1ccc([C@@H]2Sc3cc(Cl)ccc3N(CCN(C)C)C(=O)[C@@H]2OCC(=O)OC(C)(C)C)cc1 | 83 to 84
39 | CCCn1nc(C(C)C)c(C(=O)OCOC(C)=O)c1Cc1ccc(-c2ccccc2-c2nnn(C(c3ccccc3)(c3ccccc3)c3ccccc3)n2)cc1 | 124 to 128
40 | CC(C(=O)O)c1ccc2c(-c3ccc(F)cc3)noc2c1 (centres undefined) | 151 to 154
41 | CCCC(CC(=O)NC(=O)OC(C)(C)C)Nc1ccc(Cl)cc1 (centres undefined) | 76 to 77
42 | O=C(NCCN1CCCC1)c1ccc(OCc2ccc(-c3ccccc3)cc2)nc1 | 153 to 157
43 | O=C(NO)NCCc1cc2ccccc2o1 | 157 to 158
44 | CN1CCC2(C#N)C(C1)C1CN(C)C2C=C1C(=O)c1ccccc1 (centres undefined) | 120 to 139
45 | O=C1CC(CSc2nc3ccccc3s2)C(=O)O1 (centres undefined) | 87 to 88
46 | c1ccc(-c2c[nH]c([C@@H](Cc3c[nH]c4ccccc34)Nc3ncccn3)n2)cc1 | 138 to 140
47 | O=C(Nc1c(F)cccc1F)c1ccc(-n2nc(C(F)(F)F)cc2C2CC2)cc1 | 145 to 147
48 | Cc1ccc(C2CC(=O)C=C(N)C2)s1 (centres undefined) | 172 to 173
49 | NNC(=O)c1ncn2c1C1CCN1C(=O)c1sccc1-2 (centres undefined) | 260 to 263
50 | COC(=O)c1ccc(CN2C(=O)C(CCOc3ccc(CCNC(=O)OC(C)(C)C)cc3)Oc3ccccc32)cc1 (centres undefined) | 110 to 112
51 | CCOC(=O)c1cc(C)nc2sc(C(N)=O)c(N)c12 | 205 to 208
52 | O=Cc1ccc(OCc2ccccc2)c(OCc2ccccc2)c1OCc1ccccc1 | 73 to 74

Row | Compound | melting point [°C]
53 | CCOC(=O)c1c(S(N)(=O)=O)nc2sccn12 | 164 to 166
54 | CC(C)(C)OC(=O)C=Cc1cncc2ccccc12 | 81 to 83
55 | CN(C)CCn1cnc2cnc3ccccc3c21 | > 250
56 | [N-]=[N+]=NCc1cccnc1 | 40 to 43
57 | CCOC(=O)C(C)c1ccc(-c2cn3cccnc3n2)cc1 (centres undefined) | 171 to 173
58 | CC(=O)NC(=O)NCC1CC2c3cccc4[nH]c(Br)c(c34)CC2N(C)C1 (centres undefined) | 210 to 212
59 | CC(=O)Nc1cc(C)c([N+](=O)[O-])cc1CCOC(C)=O | 125
60 | CCNc1cccc(NC(=O)C(=O)OCC)c1C#N | 99 to 102
61 | CCOC(=O)c1cc(-c2ccc(OC)cc2)nn(C(C)C)c1=O | 141
62 | O=c1ccoc2cccc(OCCCN3CCN(c4ccccc4)CC3)c12 | 106 to 112
63 | O=C(O)C[C@H](NC(=O)Nc1ccc([N+](=O)[O-])cc1)C(=O)O | 118 to 120
64 | NC(=C[N+](=O)[O-])NCc1ccc(Cl)cc1 | 215 to 216
65 | O=c1ccccn1[C@@H]1c2cc(C(F)(F)C(F)(F)C(F)(F)F)ccc2OC(CF)(CF)[C@H]1O (relative stereo) | 111 to 113
66 | CC(C)(C(=O)NC1CCCCC1)c1ccc(S(=O)(=O)/C=C/C#N)cc1 | 191 to 193
67 | N#Cc1cccnc1N1CCN(CC(=O)Nc2cc(C(F)(F)F)ccc2F)CC1 | 130 to 133
68 | O=C(O)c1ccc(-c2nc(NCc3ccc4c(c3)OCO4)c3c4c(oc3n2)CCCC4)cc1 | 205
69 | CCCOc1ccc(CCNC(=O)C(F)(F)F)cc1S(=O)(=O)N=CN(C)C | 142
70 | Cc1cc(NCCO)c2[nH]ncc2n1 | 213 to 216
71 | O=C1C=C(Br)C(=O)c2ccccc21 | 130 to 132
72 | N#CC(=Cc1ccc(O)c(O)c1)C(=O)Nc1ccc(Br)cc1 | 277 to 278
73 | Cc1sc(CCc2ccc(C=CC=O)cc2)nc1-c1ccccc1 | 94 to 95
74 | Cc1csc(-c2cccnc2)n1 | 42 to 43
75 | COc1ccc2nc(C(=O)NCc3ccc(C(=O)O)cc3)[nH]c(=O)c2c1 | 287 to 288
76 | Nc1nc(-c2ccc3ncccc3c2)c(-c2ccccn2)s1 | 226
77 | N#CN=C(NCNC(=O)c1ccc(Cl)cc1)Nc1cccnc1 | 196 to 197
78 | C=C1CCCCC1(C(=S)NC)c1cccnc1 (centres undefined) | 106 to 108

Row | Compound | melting point [°C]
79 | Cc1nc2c(N)nc3ccccc3c2n1CCS(C)(=O)=O | 242 to 245
80 | O=S(=O)(c1c[nH]cc1-c1ccc(Cl)cc1)C(F)(F)F | 138 to 141
81 | COc1ccc(SC(C)(CC=C(C)C)C(=O)NO)cc1 (centres undefined) | 89
82 | O=C(NCCCc1ccncc1)N(CCC12CC3CC(CC(C3)C1)C2)C1CC1 | 108 to 116
83 | O=C(CCc1ccccc1)Oc1n[nH]c(=O)c2nc3cc(Cl)ccc3c(O)c12 | > 300
84 | Brc1cc(C#Cc2ccccc2)c(Br)cc1C#Cc1ccccc1 | 155 to 158
85 | Cn1c2c(cnc3c(N)cccc32)c(=O)n1C(=O)OC(C)(C)C | > 250
86 | CCOC(=O)c1cnc2c(F)cc(I)cc2c1O | 287 to 289
87 | O=C(CNc1ccc2[nH]c(=O)[nH]c2c1)N1CCC(Cc2ccccc2)CC1 | 237 to 238
88 | CC1(C)CC(=O)Nc2cc3nc(-c4ccc(S(=O)(=O)O)cc4)[nH]c3cc21 | > 300
89 | Cc1cc(C(=O)CCl)c(N)cc1Cl | 129 to 130
90 | COC(=O)c1cccc2c1Nc1c(I)cccc1C2 | 105 to 107
91 | COC(=O)[C@H](CC(=O)OC(C)(C)C)NC(=O)c1cccc(NC(=O)OCc2ccccc2)c1 | 115 to 116
92 | N#CCCn1nc(-c2ccc(OCc3ccccc3)cc2)sc1=S | 138
93 | CCOC(=O)Cc1c(-c2ccccc2)nn2cccnc12 | 86 to 89
94 | COC(=O)[C@H](CC(C)C)NC(=O)[C@@H]1CSC(=O)N1 | 125 to 126
95 | CCCn1c(=O)c2[nH]c(C3CCOC3)nc2n(CCC)c1=O (centres undefined) | 177 to 178
96 | c1ccc2oc(SSCCSSc3nc4ccccc4o3)nc2c1 | 124 to 125
97 | Cc1c(-c2ccccc2)oc2c(CS(=O)(=O)CCCl)cccc2c1=O | 158 to 161
98 | COc1ccc(OC2COc3ccc(OCc4cc(OC)ccn4)cc3C2O)cc1 (centres undefined) | 80 to 82
99 | COc1ccc(-c2cc(NCc3ccccc3)nnc2-c2ccc(OC)cc2)cc1 | 125 to 126
100 | O=C1C2CCCCC2C(=O)N1CCS (centres undefined) | 79 to 80
101 | CC(C)(C)NC(=O)c1cccc(C(=O)O)c1O | 191 to 195
102 | O=C1c2ccccc2C(O)N1CCO[N+](=O)[O-] (centres undefined) | 143 to 145
103 | CCCCCCCCCCCCCCN(C(=O)CCCCCCCCCCC)C1(N)OC(CO)C(O)C(O)C1C(=O)C(N)C(=O)C(C)N (centres undefined) | 115 to 117
104 | COCCNc1ccc2c(c1)OC(c1ccccc1)C(c1ccc3c(c1)NC(=O)CO3)=C2 (centres undefined) | 185 to 192
